According to US20250339569A1, “CARBONIC ANHYDRASE IX LIGANDS” (priority 2021, published 2025):
Starred links: 1 amine or outer side, 2 acyl side, 3 side chain; linkers in the order of their positions; H or OH if unused. Positions of bridges follow the written chain, without caps; N, C: chain ends. Non-standard residues stand in square brackets, D forms with d. Residues, ends and D or L forms follow the SMILES beside them. *: point of attachment. X3 = O=C(O)CN1CCN(CC(=O)O)CCN(CC(=O)NCCCOCCOCCOCCCN*)CCN(CC(=O)O)CC1; Trp(5-Cl) = N[C@@H](Cc1c[nH]c2ccc(Cl)cc12)C(=O)O; mXylylene = c1cc(C[*:1])cc(C[*:2])c1; Suc = O=C(CCC(=O)[*:2])[*:1]; dPip = O=C(O)[C@H]1CCCCN1; dNMeA = CN[C@H](C)C(=O)O; Sar = CNCC(=O)O

Legend:
[1] = biological target: T1, human carbonic anhydrase IX (hCAIX-Fc) (Homo sapiens, UniProt Q16790); experiment: Surface plasmon resonance assay with hCAIX-Fc; assay type: binding; conditions: 25° C.; for t1/2 category (activity): SPR dissociation half-life, hCAIX-Fc; for Kd: SPR, hCAIX-Fc captured, read-out: pKD category (activity) (converted)
T1 construct: purchased SinoBliological (Sino Biological) 10107-H02H
Procedure: Surface plasmon resonance (SPR) studies were performed using a Biacore™ T200 SPR system (GE Healthcare Life Sciences). Briefly, polarized light is directed towards a gold-labeled sensor surface, and minimum intensity reflected light is detected. The angle of reflected light changes as molecules bind and dissociate.
Fc-fusion protein of human carbonic anhydrase IX (hCAIX-Fc, SinoBliological, Cat #10107-H02H) was captured on a Fc-capture chip (Biacore™ CM5 sensor chip coated with ˜300 RU of an Fc-binding peptide). Recombinant carbonic anydrase was diluted in Running Buffer (PBST, 0.1% DMSO) to a final concentration 100 or 200 nM and than flushed over the Fc-capture chip to immobilized ˜1000 RUs.
Stock solutions of test compounds were prepared by dissolving each compound in DMSO. DMSO stock solution were diluted 1:1000 in Running Buffer without DMSO. Further sequencial dilutions were made with Running Buffer containing 0.1% DMSO. SPR binding analyses were performed in Single Cycle Kinetic (SCK) mode at 25° C. Flow cell coated with the Fc-binding peptide only served as reference flowcell. After each SCK run, carbonic andydrase IX was removed with 10 mM glycine buffer, pH 1.5.
In between every three SCK measurements, a blank run with Running Buffer instead of test compound was included to correct for baseline drifts (double blanking methods).
Table 11 describes the protocol steps for Fc-fusion target capturing and assessment of the binding kinetics.
For each test compound, SPR raw data in the form of resonance units (RU) were plotted as sensorgrams using the Biacore™ T200 control software. The signal from the blank sensorgram was subtracted from that of the test compound sensorgram (blank corrected). The blank corrected sensorgram was corrected for baseline drift by subtracting the sensorgram of a SCK run without the test compound (running buffer only). The association rate (kon), dissociation rate (koff), dissociation constant (KD), and t1/2 were calculated from Blank-normalized SPR data using the 1:1 Langmuir binding model from the Biacore™ T200 evaluation software. Raw data and fit results were imported as text files in IDBS. The pKD value (negative decadic logarithm of dissociation constant) was calculated in the IDBS excel template.

[2] = biological target: T2, CAIX-expressing human HT-29 colorectal cancer cells (Homo sapiens, UniProt Q16790); experiment: FACS binding assay (IC50 determination, competition with tracer 3BP-2776 or 3BP-4149); conditions: FACS competition on HT-29 cells, Tracer ID 3BP-2776 (10 nM, biotin-labeled), 4° C., 1 hour; read-out: pIC50 category (activity) (converted)
T2 construct: CAIX-expressing human HT-29 colorectal cancer cells; host or cells: HT-29 human colorectal cancer cells
Outline: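 HT-29 cells in FACS buffer (PBS, 1% FCS) at 500.000 cells/ml were exposed to compounds competing with a labelled tracer, with biotinylated compounds detected by 1 μg/mL APC-streptavidin for 30 min on ice. APC/Cy5 median fluorescence was read by flow cytometry and IC50 derived by 4PL fit.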

Row | t1/2 category (activity) [1] | Kd [1] [nM] | IC50 [2] [nM] | SMILES
1 | B (t1/2 between 5.1 and 15.0 minutes) | < 10 | < 10 | CC(=O)N[C@H](C(=O)N[C@@H](Cc1ccc(O)cc1)C(=O)N[C@H]1CSCc2cccc(c2)CSC[C@@H](C(N)=O)NC(=O)[C@H](C)NC(=O)[C@H](Cc2c[nH]c3ccccc23)NC(=O)[C@H]([C@@H](C)O)NC(=O)[C@H](CC(C)C)NC(=O)[C@H](Cc2c[nH]c3ccccc23)NC(=O)[C@H](CC(=O)O)NC(=O)[C@@H](C)NC(=O)[C@H](CCC(=O)O)NC1=O)C(C)C [3BP-3280] (Ac-VYCE[dA]DWLTWAC-NH2; linker 3-12 via mXylylene)
2 | – | < 10 | < 10 | CC(=O)N[C@H](C(=O)N[C@@H](Cc1ccc(O)cc1)C(=O)N[C@H]1CSCc2cccc(c2)CSC[C@@H](C(N)=O)NC(=O)[C@H](C)NC(=O)[C@H](Cc2c[nH]c3ccccc23)NC(=O)[C@H]([C@@H](C)O)NC(=O)[C@H](CC(C)C)NC(=O)[C@H](Cc2c[nH]c3ccccc23)NC(=O)[C@H](CC(=O)O)NC(=O)[C@@H](C)N(C)C(=O)[C@H](CCC(=O)O)NC1=O)C(C)C [3BP-3281] (Ac-VYCE[dNMeA]DWLTWAC-NH2; linker 3-12 via mXylylene)
3 | – | < 10 | < 10 | CC(=O)N[C@H](C(=O)N[C@@H](Cc1ccc(O)cc1)C(=O)N[C@H]1CSCc2cccc(c2)CSC[C@@H](C(N)=O)NC(=O)[C@H](C)NC(=O)[C@H](Cc2c[nH]c3ccccc23)NC(=O)[C@H]([C@@H](C)O)NC(=O)[C@H](CC(C)C)NC(=O)[C@H](Cc2c[nH]c3ccccc23)NC(=O)[C@H](CC(=O)O)NC(=O)[C@H]2CCCCN2C(=O)[C@H](CCC(=O)O)NC1=O)C(C)C [3BP-3283] (Ac-VYCE[dPip]DWLTWAC-NH2; linker 3-12 via mXylylene)
4 | B (t1/2 between 5.1 and 15.0 minutes) | < 10 | < 10 | CC(=O)N[C@H](C(=O)N[C@@H](Cc1ccc(O)cc1)C(=O)N[C@H]1CSCc2cccc(c2)CSC[C@@H](C(N)=O)NC(=O)[C@H](CCC(N)=O)NC(=O)[C@H](Cc2c[nH]c3ccccc23)NC(=O)[C@H]([C@@H](C)O)NC(=O)[C@H](CC(C)C)NC(=O)[C@H](Cc2c[nH]c3ccc(Cl)cc23)NC(=O)[C@H](CC(=O)O)NC(=O)CN(C)C(=O)[C@H](CCC(=O)O)NC1=O)C(C)C [3BP-3289] (Ac-VYCE[Sar]D[Trp(5-Cl)]LTWQC-NH2; linker 3-12 via mXylylene)

The next lines start with the compound.

Row | SMILES | t1/2 category (activity) [1] | Kd [1] [nM] | IC50 [2] [nM]
5 | CC(C)C[C@@H]1NC(=O)[C@H](Cc2c[nH]c3ccccc23)NC(=O)[C@H](CC(=O)O)NC(=O)CNC(=O)[C@H](CCC(=O)O)NC(=O)[C@@H](NC(=O)[C@H](Cc2ccc(O)cc2)NC(=O)[C@@H](NC(=O)CCC(=O)NCCCOCCOCCOCCCNC(=O)CN2CCN(CC(=O)O)CCN(CC(=O)O)CCN(CC(=O)O)CC2)C(C)C)CSCc2cccc(c2)CSC[C@@H](C(N)=O)NC(=O)[C@H](C)NC(=O)[C@H](Cc2c[nH]c3ccccc23)NC(=O)[C@H]([C@@H](C)O)NC1=O [3BP-3272] ({X3-Suc}-VYCEGDWLTWAC-NH2; linker 3-12 via mXylylene) | C (t1/2 between 2.1 and 5.0 minutes) | < 10 | < 10
6 | CC(C)C[C@@H]1NC(=O)[C@H](Cc2c[nH]c3ccccc23)NC(=O)[C@H](CC(=O)O)NC(=O)[C@@H](C)NC(=O)[C@H](CCC(=O)O)NC(=O)[C@@H](NC(=O)[C@H](Cc2ccc(O)cc2)NC(=O)[C@@H](NC(=O)CCC(=O)NCCCOCCOCCOCCCNC(=O)CN2CCN(CC(=O)O)CCN(CC(=O)O)CCN(CC(=O)O)CC2)C(C)C)CSCc2cccc(c2)CSC[C@@H](C(N)=O)NC(=O)[C@H](C)NC(=O)[C@H](Cc2c[nH]c3ccccc23)NC(=O)[C@H]([C@@H](C)O)NC1=O [3BP-3279] ({X3-Suc}-VYCE[dA]DWLTWAC-NH2; linker 3-12 via mXylylene) | B (t1/2 between 5.1 and 15.0 minutes) | < 10 | < 10
